Reference: patent publication US20260158016A1, “HALOPERIDOL DERIVATIVES, PHARMACEUTICAL COMPOSITION COMPRISING SAID DERIVATIVES, AND THERAPEUTIC USES THEREOF” (University of Virginia Patent Foundation, priority 2023, published 2026)
“Also recorded” adds a separate entry of the source.

Legend:
[1] = tested on: dry AMD; experiment: Health insurance claims database analysis (PearlDiver Mariner): risk of developing dry AMD by haloperidol exposure; assay type: in vivo, human; details: for Hazard Ratio of developing dry AMD (adjusted hazard ratio): adjusted Cox proportional hazards regression, propensity-score-matched, patients with schizophrenia or Tourette's disorder aged 50 or older
Text: The retrospective study used claims data from the PearlDiver Mariner database, which contains data on health care claims and medication usage for persons in provider networks over the time period 2010 to the second quarter of 2018.
Patients were included in the analysis if they had continuous enrollment in the plan for at least 1 year and were at least 50 years of age at baseline. Individuals with pre-existing dry AMD (≥1 medical claims prior to diagnosis of schizophrenia or Tourette's disorder) were excluded. Disease claims were identified by International Classification of Diseases (ICD)-9-CM and ICD-10-CM codes.
Exposure to haloperidol—the independent variable—was determined by whether patients filled ≥1 outpatient pharmacy prescriptions for generic or brand versions, either in sole form or as a combination medication, as identified by National Drug Codes.
Time to initial diagnosis of dry AMD was the dependent variable.
Analyses were performed with the use of R software, version 4.2.2 (the R project (www.r-project.org)). To analyze the risk of dry AMD between haloperidol users and haloperidol non-users, an adjusted Cox proportional hazards regression analysis was performed, and the hazard ratio was analyzed by the likelihood ratio test. […] This adjusted model included confounding covariates that influence dry AMD risk: age, sex, smoking, body mass index, and Charlson comorbidity index. Kaplan-Meier survival plots were analyzed by log rank test. Statistical tests were 2-sided. P values <0.05 were considered statistically significant.
To evaluate the robustness of the findings and mitigate any possible residual confounding, we estimated propensity-score models including use of haloperidol and no use of haloperidol. The individual propensities for starting haloperidol treatment were estimated with the use of logistic regression. […] We used the R package MatchIt to perform matching in a 1:1 ratio using greedy nearest neighbor matching. In addition, to control for any residual covariate imbalance, we estimated the relative hazard in the propensity score-matched groups using the multivariable Cox models that included the covariates from the multivariable regression analysis employed for the original unmatched group analyses. Statistical tests were two-sided. P values <0.05 were considered statistically significant.
We performed a retrospective, longitudinal cohort analysis in the PearlDiver Mariner database (comprising 150 million Americans from 2010 to 2018) among patients with schizophrenia or Tourette's disorder (the population that would be exposed to haloperidol or other anti-psychotics) aged 50 or older (the population at risk) to assess the risk of dry AMD.

[2] = tested on: IL-1β secretion by THP-1 cells; experiment: Inflammasome activation: IL-1β secretion ELISA in LPS and ATP stimulated THP-1 cells; assay type: cell-based, human; details: LPS 125 ng/ml 4 h + ATP 5 mM 30 min, haloperidol pretreatment 1 h, P<0.05 vs vehicle
Protocol: Human THP-1 cells were stimulated with LPS (125 ng/ml) for 4 h and ATP (5 mM) for 30 min. For all experiments, cells were pretreated with haloperidol (1, 10, or 100 μM) for 1 h and again after the activating stimuli. Secreted human […] in the conditioned cell culture media was detected using an ELISA kit (R&D Systems) according to the manufacturer's instructions. Mean and SEM values are presented.
Haloperidol was tested for inhibition of inflammasome activation. Inflammasome activation was assessed in human THP-1 monocytes by measuring IL-1ß secretion via ELISA.

[3] = tested on: Alu RNA-induced RPE degeneration; experiment: Alu RNA-induced RPE degeneration in mice (ZO-1 stained RPE flat mounts); assay type: in vivo, C57BL/6J mice
Protocol: C57BL/6J mice (The Jackson Laboratory) were anesthetized with ketamine hydrochloride and xylazine. In vitro-transcribed Alu RNA (300 ng in 1 μL) was injected subretinally to induce RPE degeneration (Kaneko, 2011). Various doses of haloperidol (Sigma Aldrich; 1-500 ng in 0.5 μL) or PBS (vehicle) was injected into the vitreous humor 24 h before and immediately after Alu RNA injection. Alternatively, various doses of haloperidol (2-10 μg) were administered via intraperitoneal administration on days 1 through 6 after Alu RNA injection. Animals were euthanized 7 days after Alu RNA injection, and the eyes were enucleated.
RPE health was assessed by immunofluorescence staining of zonula occludens-1 (ZO-1) on RPE flat mounts. Flat mounts were fixed with 2% PFA, stained with rabbit polyclonal antibodies against mouse ZO-1 (Invitrogen), visualized with Alexa Fluor 594 (Invitrogen), and imaged (A1R Nikon). Images were graded as healthy or degenerated in masked fashion as previously described (Kerur, 2018). Proportions of eyes with degeneration were compared using Fisher's exact test.

[4] = patients taking haloperidol (Coryell, 1998); cited from earlier work

O=C(CCCN1CCC(O)(c2ccc(Cl)cc2)CC1)c1ccc(F)cc1 [haloperidol]
rate of developing dry AMD (Kaplan-Meier survival analysis) ([1]; Mariner database, log-rank test P<0.001): significantly slower rate | Hazard Ratio of developing dry AMD (adjusted hazard ratio) ([1]; Mariner database): 0.747 | Hazard Ratio of developing dry AMD (adjusted hazard ratio) ([1]; Mariner database, listed as Haloperidol): 0.7468 | reduced hazard of developing dry AMD ([1]; haloperidol exposure vs nonexposure, Mariner, adjusted Cox model): 25% | IL-1β secretion (inflammasome activation) [2]: reduced; also recorded: inhibits | eyes protected against RPE degeneration ([3]; 5 ng haloperidol intravitreous, 24 h before and immediately after subretinal Alu RNA, assessed day 7): 70% | protection against RPE degeneration ([3]; daily intraperitoneal injection at 2 μg, 5 μg, or 10 μg, days 1 through 6 after Alu RNA): 70-80% | dose with maximal protective effect against RPE degeneration ([3]; intravitreous dose-ranging 1 ng to 500 ng): 5 ng | Alu RNA-induced RPE degeneration (qualitative) ([3]; subretinal Alu RNA, intravitreous or intraperitoneal haloperidol (FIG. 3)): blocked | serum concentration [4]: exceeding 20 ng/ml
